These are literature values, as cited in US9125953B2, “Halogenated ether complex” (SAPIOTEC GMBH, priority 2010, dated 2015).

With `OC[C@H]1O[C@@H]2O[C@H]3[C@H](O)[C@@H](O)[C@@H](O[C@H]4[C@H](O)[C@@H](O)[C@@H](O[C@H]5[C@H](O)[C@@H](O)[C@@H](O[C@H]6[C@H](O)[C@@H](O)[C@@H](O[C@H]7[C@H](O)[C@@H](O)[C@@H](O[C@H]1[C@H](O)[C@H]2O)O[C@@H]7CO)O[C@@H]6CO)O[C@@H]5CO)O[C@@H]4CO)O[C@@H]3CO` [α-cyclodextrin], the “solubility of unsubstituted α-cyclodextrin in water” value was 14.5 % by weight.
